Laboratory results as given in patent publication US5508277A, “Bicyclic pyrimidines” (Adir Et Compagnie, priority 1992, dated 1996).

Experiments:
[1] = test system: P388/VCR (murine leukaemia resistant to vincristine); test: Increase in the anti-tumour activity of vincristine in vivo, compounds administered p.o.; design: species or system mice (female B6D2F1); details: 100 mg/kg p.o., days 1, 2, 3 and 4; + vincristine 0.25 mg/kg i.p.
Source text: (§1) The sensitive parent line P388 (murine leukaemia) and the sub-line resistant to vincristine, P388/VCR, were supplied by NCI (Frederick, USA). The tumour cells (10^6 cells) were inoculated on day 0 into the intraperitoneal cavity of female B6D2F1 mice (Iffa Credo, France) weighing from 18 to 20 g (groups of 8 to 10 animals). In the case of i.p. administration of the compounds to be tested, the animals received on days 1, 5 and 9:
In the case of p.o. administration of the compounds to be tested, the animals received on days 1, 2, 3 and 4:
an administration by the oral route of 100 mg/kg of the compound of the present invention to be tested, then
30 to 60 minutes later, an administration by the i.p. route of 0.25 mg/kg of vincristine.
The anti-tumour activity is expressed as follows: [formula]
The activity of the reversing compound is expressed as T/V: [formula]

DC-3F/AD cells = test: Cytotoxicity of actinomycin D, reversal of MDR (reversion factor), Microculture Tetrazolium Assay; format: cell-based, Chinese hamster; details: compound at 5 μM, with actinomycin D, 4 days
Procedure: Two resistant cell lines were used:
The cells are distributed on microplates and exposed to the cytotoxic compound (actinomycin D or adriamycin) at 9 concentrations (2 by 2 series dilutions). The compounds tested for their capacity to reverse MDR are added at the same time as the cytotoxic agent. The cells are then incubated for 4 days. […] The results are expressed as a reversion factor (RF): [formula]

[2] = test system: P388/VCR (murine leukaemia resistant to vincristine); test: Increase in the anti-tumour activity of vincristine in vivo, compounds administered i.p.; design: species or system mice (female B6D2F1); details: for increase in anti-tumour activity of vincristine (in words): administered i.p., resistant tumour
Procedure: as §1, with “9: administration by the i.p. route of 25, 50 or 75 mg/kg of the compound of the present invention to be tested, then 30 to 60 minutes later, an administration by the i.p. route of 0.50 mg/kg of vincristine (used as a reference anti-tumour agent). The anti-tumour activity is expressed as follows: [formula] The activity of the reversing compound is expressed as T/V: [formula]” for “9:”

[3] = 25 mg/kg i.p., days 1, 5 and 9, + vincristine 0.50 mg/kg i.p.
[4] = 50 mg/kg i.p., days 1, 5 and 9, + vincristine 0.50 mg/kg i.p.
[5] = 75 mg/kg i.p., days 1, 5 and 9, + vincristine 0.50 mg/kg i.p.
[6] = VCR only, 0.50 mg/kg i.p., no compound

C=CCNc1nc(N2CCC(NC3c4ccccc4N(C)S(=O)(=O)c4cc(Cl)ccc43)CC2)nc2c1ncn2CC=C (single isomer, unassigned) [Example 15, (+)--(R)-- or --(S)-9-allyl-6-allylamino-2-{4-[(3-chloro-6-methyl-5,5-dioxo-6,11-dihydrodibenzo[c,f][1,2]thiazepin-11-yl)amino]piperidino)purine]
T/C [1]: 157

C=CCNc1nc(N2CCC(NCC3c4ccccc4CCc4ccccc43)CC2)nc2c1ncn2CC=C [Example 1, 9-allyl-6-allylamino-2-{4-[(10,11-dihydro-5H-dibenzo-[a,d]cyclohepten-5-yl)methylamino]piperidino}purine]
REVERSION FACTOR 5 μM DC-3F/AD (DC-3F/AD cells): 5173
T/C [1]: 209
T/C % [2, 3]: 215%
T/V [2, 3]: 1.54
T/C % [2, 4]: 239%
T/V [2, 4]: 1.71
T/C % [2, 5]: 176%
T/V [2, 5]: 1.26
increase in anti-tumour activity of vincristine (in words) [2]: substantially increase the anti-tumour activity of vincristine against a resistant tumour

C=CCNc1nc(N2CCC(NCC3c4ccccc4CCc4ccccc43)CC2)c2ncn(CC=C)c2n1 [Example 2, 9-allyl-2-allylamino-6-{4-[(10,11-dihydro-5H-dibenzo-[a,d]cyclohepten-5-yl)methylamino]piperidino}purine]
REVERSION FACTOR 5 μM DC-3F/AD (DC-3F/AD cells): 3368
T/C [1]: 172
T/C % [2, 3]: 192%
T/V [2, 3]: 1.37
T/C % [2, 4]: 224%
T/V [2, 4]: 1.60
T/C % [2, 5]: 235%
T/V [2, 5]: 1.68
increase in anti-tumour activity of vincristine (in words) [2]: substantially increase the anti-tumour activity of vincristine against a resistant tumour

C=CCNc1nc(N2CCC(NCC(c3ccc(F)cc3)c3ccc(F)cc3)CC2)nc2c1ncn2CC=C [Example 3, 9-allyl-6-allylamino-2-{4-[2,2-bis(4-fluorophenyl)-ethylamino]piperidino}purine]
T/C [1]: 203

C=CCNc1nc(N2CCC(NCC3c4ccccc4COc4ccccc43)CC2)nc2c1ncn2CC=C (stereo not shown) [Example 5, 9-allyl-6-allylamino-2-{4-[(6,11-dihydrodibenzo[b,e]-oxepin-11-yl)methylamino]piperidino}purine]
T/C [1]: 196

C=CCNc1nc(N2CCC(NCC3c4ccccc4C=Cc4ccccc43)CC2)nc2c1ncn2CC=C [Example 6, 9-allyl-6-allylamino-2-{4-[(5H-dibenzo[a,d]cyclohepten-5-yl)methylamino]piperidino}purine]
T/C [1]: 188

C=CCNc1nc(N2CCC(NCC3c4ccccc4CCc4ccccc43)CC2)nc2c1cnn2CC=C [Example 9, 1-allyl-4-allylamino-6-{4-[(10,11-dihydro-5H-dibenzo[a,d]cyclohepten-5-yl)methylamino]piperidino}pyrazolo[3,4-d]pyrimidine]
T/C [1]: 161

C=CCNc1nc(N2CCC(NCC(c3ccccc3)c3ccccc3)CC2)nc2c1ncn2CC=C [Example 12, 9-allyl-6-allylamino-2-{4-[(2,2-diphenylethyl)amino]piperidino}purine]
T/C [1]: 192

C=CCNc1nc(N2CCC(NCC3c4ccccc4CCc4cc(OC)ccc43)CC2)nc2c1ncn2CC=C (stereo not shown) [Example 14, 9-allyl-6-allylamino-2-{4-[(2-methoxy-10,11-dihydro-5H-dibenzo[a,d]cyclohepten-5-yl)methylamino]piperidino}purine]
T/C [1]: 202

CC[C@]1(O)C[C@H]2CN(CCc3c([nH]c4ccccc34)[C@@](C(=O)OC)(c3cc4c(cc3OC)N(C=O)[C@H]3[C@@](O)(C(=O)OC)[C@H](OC(C)=O)[C@]5(CC)C=CCN6CC[C@]43[C@@H]65)C2)C1 [VCR, vincristine, reference compound]
T/C % [2, 6]: 140%
T/V [2, 6]: 1

COc1ccc(CCN(C)CCCC(C#N)(c2ccc(OC)c(OC)c2)C(C)C)cc1OC (stereo not shown) [verapamil, reference compound]
REVERSION FACTOR 5 μM DC-3F/AD (DC-3F/AD cells): 3
